The values below come from ChEMBL document CHEMBL6109060, “Potent HIV‑1 protease inhibitors containing oxabicyclo octanol-derived P2-ligands: Design, synthesis, and X‑ray structural studies of inhibitor-HIV-1 protease complexes” (Bioorg Med Chem Lett, 2025).

Usually Ki stands for a dissociation constant, usually derived from enzyme kinetics or from competition with a known ligand. Read a low Ki as a stronger hold on the target. In general, EC50 refers to the concentration giving half of the maximal effect. Read a low EC50 as a more potent agent.

Assay [1] has as its target Human immunodeficiency virus type 1 protease (Human immunodeficiency virus 1, UniProt Q72874). In words: Inhibition of HIV-1 protease using Abz-Thr-Ile-Nle-Phe-(p-NO2)-Gln-Arg-NH2 as substrate preincubated for 5 to 10 mins followed by substrate addition and measured after 1 hr by spectrofluorometric assay.
For assay [2], the system named is Human immunodeficiency virus 1. The experiment in a line: Antiviral activity against HIV-1 LAI infected in human MT2 cells reduction in virus-induced cytopathic effect measured after 7 days by MTT assay. The following applies: Human immunodeficiency virus 1, LAI, MT2, 168 h. It is filed as functional, organism-based.

`COc1ccc(S(=O)(=O)N(CC(C)C)C[C@@H](O)[C@H](Cc2ccccc2)NC(=O)O[C@H]2CC[C@@H]3C[C@H]4CO[C@@H](C(C)C)[C@@]42O3)cc1` displayed an inhibition constant (Ki) in assay [1] of 855 nM.
For the compound `COc1ccc(S(=O)(=O)N(CC(C)C)C[C@@H](O)[C@H](Cc2ccccc2)NC(=O)O[C@@H]2CC[C@@H]3C[C@H]4CO[C@@H](C(C)C)[C@@]42O3)cc1`, the EC50 in assay [2] is above 1000 nM. This compound also displayed an inhibitory constant (Ki) in assay [1] of 620 nM.
In turn, `COc1ccc(S(=O)(=O)N(CC(C)C)C[C@@H](O)[C@H](Cc2ccccc2)NC(=O)O[C@@H]2CC[C@@H]3C[C@H]4CO[C@@H](C)[C@@]42O3)cc1` came in with an EC50 in assay [2] above 1000 nM. Moreover, in assay [1], the Ki stood at 20.6 nM.
The corresponding values for `COc1ccc(S(=O)(=O)N(CC(C)C)C[C@@H](O)[C@H](Cc2ccccc2)NC(=O)O[C@H]2CC[C@@H]3C[C@H]4CO[C@@H](c5ccccc5)[C@@]42O3)cc1` are above 1000 nM and 43 nM.
Taken in the same sequence, the figures for `COc1ccc(S(=O)(=O)N(CC(C)C)C[C@@H](O)[C@H](Cc2ccccc2)NC(=O)O[C@H]2CC[C@@H]3C[C@H]4CO[C@@H](C)[C@@]42O3)cc1` were 240 nM and 1.65 nM.
The corresponding values for `COc1ccc(S(=O)(=O)N(CC(C)C)C[C@@H](O)[C@H](Cc2ccccc2)NC(=O)O[C@@H]2CC[C@@H]3C[C@H]4CO[C@@H](c5ccccc5)[C@@]42O3)cc1` are above 1000 nM and 1300 nM.
The compound `COc1ccc(S(=O)(=O)N(CC(C)C)C[C@@H](O)[C@H](Cc2ccccc2)NC(=O)O[C@@H]2CC[C@H]3C[C@@H]4CO[C@H](c5ccccc5)[C@]42O3)cc1` displayed an EC50 in assay [2] above 1000 nM. In addition, the inhibition constant (Ki) in assay [1] worked out at 272 nM.
`COc1ccc(S(=O)(=O)N(CC(C)C)C[C@@H](O)[C@H](Cc2ccccc2)NC(=O)O[C@H]2CC[C@H]3C[C@@H]4CO[C@H](c5ccccc5)[C@]42O3)cc1` gave a 50% effective concentration (EC50) in assay [2] above 1000 nM. The inhibitory constant (Ki) in assay [1] came out at 424 nM.
